Experimental data from PubChem BioAssay (NCI).
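Five compound concentrations were applied to cells in 96-well plates for 48 hours; endpoints were derived by simple linear interpolation of the resulting dose-response curve. GI50: concentration for 50% inhibition of growth. TGI is the concentration that stops growth completely.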

Columns and labels:
Experiment in all cases: NCI anticancer screen, dose series, 48 h
786-0 renal = test system: 786-0 renal
A549 NSCLC = test system: A549 NSCLC
ACHN renal = test system: ACHN renal
BT-549 breast = test system: BT-549 breast
CAKI-1 renal = test system: CAKI-1 renal
CCRF-CEM leukemia = test system: CCRF-CEM leukemia
COLO 205 colon = test system: COLO 205 colon
DU-145 prostate = test system: DU-145 prostate
EKVX NSCLC = test system: EKVX NSCLC
HCC-2998 colon = test system: HCC-2998 colon
HCT-116 colon = test system: HCT-116 colon
HCT-15 colon = test system: HCT-15 colon
HL-60(TB) leukemia = test system: HL-60(TB) leukemia
HOP-62 NSCLC = test system: HOP-62 NSCLC
HOP-92 NSCLC = test system: HOP-92 NSCLC
HS 578T breast = test system: HS 578T breast
HT29 colon = test system: HT29 colon
IGROV1 ovarian = test system: IGROV1 ovarian
K-562 leukemia = test system: K-562 leukemia
KM12 colon = test system: KM12 colon
LOX IMVI melanoma = test system: LOX IMVI melanoma
M14 melanoma = test system: M14 melanoma
MALME-3M melanoma = test system: MALME-3M melanoma
MCF7 breast = test system: MCF7 breast
MDA-MB-231 breast = test system: MDA-MB-231 breast
MDA-MB-435 = test system: MDA-MB-435
MOLT-4 leukemia = test system: MOLT-4 leukemia
NCI-H226 lung = test system: NCI-H226 lung
NCI-H23 lung = test system: NCI-H23 lung
NCI-H460 lung = test system: NCI-H460 lung
NCI-H522 lung = test system: NCI-H522 lung
NCI/ADR-RES ovarian = test system: NCI/ADR-RES ovarian
OVCAR-3 ovarian = test system: OVCAR-3 ovarian
OVCAR-4 ovarian = test system: OVCAR-4 ovarian
OVCAR-5 ovarian = test system: OVCAR-5 ovarian
OVCAR-8 ovarian = test system: OVCAR-8 ovarian
PC-3 prostate = test system: PC-3 prostate
RPMI-8226 leukemia = test system: RPMI-8226 leukemia
RXF 393 renal = test system: RXF 393 renal
SF-268 CNS = test system: SF-268 CNS
SF-295 CNS = test system: SF-295 CNS
SF-539 CNS = test system: SF-539 CNS
SK-MEL-28 melanoma = test system: SK-MEL-28 melanoma
SK-MEL-5 melanoma = test system: SK-MEL-5 melanoma
SK-OV-3 ovarian = test system: SK-OV-3 ovarian
SN12C renal = test system: SN12C renal
SNB-19 CNS = test system: SNB-19 CNS
SNB-75 CNS = test system: SNB-75 CNS
SR leukemia = test system: SR leukemia
SW-620 colon = test system: SW-620 colon
T-47D breast = test system: T-47D breast
TK-10 renal = test system: TK-10 renal
U251 CNS = test system: U251 CNS
UACC-257 melanoma = test system: UACC-257 melanoma
UACC-62 melanoma = test system: UACC-62 melanoma
UO-31 renal = test system: UO-31 renal

In the case of `CCN(CC)CCOc1nc2cc(OC)c(OC)cc2c2c1-c1ccc(OC)cc1C2=O`, the GI50 (786-0 renal) is reported as 15.7 µM, the TGI (786-0 renal) is reported as 30.3 µM and the GI50 (A549 NSCLC) is reported as 1.48 µM. The TGI (A549 NSCLC) was 2.87 µM, the GI50 (ACHN renal) was 11.5 µM and the TGI (ACHN renal) was 23.8 µM. It also gave a GI50 (BT-549 breast) of 15.7 µM, a TGI (BT-549 breast) of 29.5 µM and a GI50 (CAKI-1 renal) of 10.3 µM. For the same compound, the TGI (CAKI-1 renal) was 22.5 µM, the GI50 (CCRF-CEM leukemia) was 0.54 µM and the TGI (CCRF-CEM leukemia) was 12.3 µM. It also gave a GI50 (COLO 205 colon) of 11.5 µM, a TGI (COLO 205 colon) of 24.6 µM and a GI50 (DU-145 prostate) of 5.56 µM. It also gave a TGI (DU-145 prostate) of 18.3 µM, a GI50 (EKVX NSCLC) of 14.2 µM and a TGI (EKVX NSCLC) of 28.1 µM. It also gave a GI50 (HCC-2998 colon) of 14.3 µM, a TGI (HCC-2998 colon) of 27.6 µM and a GI50 (HCT-116 colon) of 1.35 µM. For the same compound, the TGI (HCT-116 colon) was 2.63 µM, the GI50 (HCT-15 colon) was 1.79 µM and the TGI (HCT-15 colon) was 3.78 µM. It also gave a GI50 (HL-60(TB) leukemia) of 13.4 µM, a TGI (HL-60(TB) leukemia) of 34.6 µM and a GI50 (HOP-62 NSCLC) of 10 µM. The TGI (HOP-62 NSCLC) was 22.2 µM, the GI50 (HOP-92 NSCLC) was 15.7 µM and the TGI (HOP-92 NSCLC) was 32.1 µM. The GI50 (HS 578T breast) was 20.4 µM, the TGI (HS 578T breast) was 44.9 µM and the GI50 (HT29 colon) was 1.67 µM. For the same compound, the TGI (HT29 colon) was 3.11 µM, the GI50 (IGROV1 ovarian) was 5.65 µM and the TGI (IGROV1 ovarian) was 20.6 µM. It also gave a GI50 (K-562 leukemia) of 2.06 µM, a TGI (K-562 leukemia) of 5.01 µM and a GI50 (KM12 colon) of 1.51 µM. The TGI (KM12 colon) was 2.87 µM, the GI50 (LOX IMVI melanoma) was 1.27 µM and the TGI (LOX IMVI melanoma) was 2.7 µM. It also gave a GI50 (M14 melanoma) of 11.7 µM, a TGI (M14 melanoma) of 24 µM and a GI50 (MALME-3M melanoma) of 21.1 µM. The TGI (MALME-3M melanoma) was 36.9 µM, the GI50 (MCF7 breast) was 0.697 µM and the TGI (MCF7 breast) was 17.3 µM. For the same compound, the GI50 (MDA-MB-231 breast) was 13 µM, the TGI (MDA-MB-231 breast) was 26.9 µM and the GI50 (MDA-MB-435) was 13.3 µM. It also gave a TGI (MDA-MB-435) of 26 µM, a GI50 (MOLT-4 leukemia) of 1.91 µM and a TGI (MOLT-4 leukemia) of 17.6 µM. For the same compound, the GI50 (NCI-H226 lung) was 13.6 µM, the TGI (NCI-H226 lung) was 35.1 µM and the GI50 (NCI-H23 lung) was 12.5 µM. It also gave a TGI (NCI-H23 lung) of 27.9 µM, a GI50 (NCI-H460 lung) of 1.22 µM and a TGI (NCI-H460 lung) of 2.72 µM. It also gave a GI50 (NCI-H522 lung) of 0.312 µM, a TGI (NCI-H522 lung) of 18.7 µM and a GI50 (NCI/ADR-RES ovarian) of 13.2 µM. The TGI (NCI/ADR-RES ovarian) was 29.8 µM, the GI50 (OVCAR-3 ovarian) was 11.7 µM and the TGI (OVCAR-3 ovarian) was 24 µM. For the same compound, the GI50 (OVCAR-4 ovarian) was 13.9 µM, the TGI (OVCAR-4 ovarian) was 33.5 µM and the GI50 (OVCAR-5 ovarian) was 21.2 µM. For the same compound, the TGI (OVCAR-5 ovarian) was 36.4 µM, the GI50 (OVCAR-8 ovarian) was 8.62 µM and the TGI (OVCAR-8 ovarian) was 21.4 µM. The GI50 (PC-3 prostate) was 12.3 µM, the TGI (PC-3 prostate) was 26.8 µM and the GI50 (RPMI-8226 leukemia) was 3.26 µM. The TGI (RPMI-8226 leukemia) was 19.6 µM, the GI50 (RXF 393 renal) was 12.8 µM and the TGI (RXF 393 renal) was 25.9 µM. The GI50 (SF-268 CNS) was 4.93 µM, the TGI (SF-268 CNS) was 21.9 µM and the GI50 (SF-295 CNS) was 0.117 µM. It also gave a TGI (SF-295 CNS) of 0.597 µM, a GI50 (SF-539 CNS) of 8.62 µM and a TGI (SF-539 CNS) of 23.6 µM. It also gave a GI50 (SK-MEL-28 melanoma) of 21.5 µM, a TGI (SK-MEL-28 melanoma) of 36.4 µM and a GI50 (SK-MEL-5 melanoma) of 16.1 µM. For the same compound, the TGI (SK-MEL-5 melanoma) was 30.2 µM, the GI50 (SK-OV-3 ovarian) was 13.2 µM and the TGI (SK-OV-3 ovarian) was 26 µM. It also gave a GI50 (SN12C renal) of 5.29 µM, a TGI (SN12C renal) of 21.1 µM and a GI50 (SNB-19 CNS) of 10.5 µM. For the same compound, the TGI (SNB-19 CNS) was 23.7 µM, the GI50 (SNB-75 CNS) was 16.8 µM and the TGI (SNB-75 CNS) was 33.1 µM. For the same compound, the GI50 (SR leukemia) was 0.583 µM, the TGI (SR leukemia) was 3.4 µM and the GI50 (SW-620 colon) was 1.21 µM. It also gave a TGI (SW-620 colon) of 2.68 µM, a GI50 (T-47D breast) of 18.4 µM and a TGI (T-47D breast) of 38.2 µM. It also gave a GI50 (TK-10 renal) of 16.1 µM, a TGI (TK-10 renal) of 29.6 µM and a GI50 (U251 CNS) of 2.42 µM. The TGI (U251 CNS) was 18.7 µM, the GI50 (UACC-257 melanoma) was 19.8 µM and the TGI (UACC-257 melanoma) was 34.3 µM. It also gave a GI50 (UACC-62 melanoma) of 15.5 µM, a TGI (UACC-62 melanoma) of 36.3 µM and a GI50 (UO-31 renal) of 1.77 µM. The TGI (UO-31 renal) was 14.2 µM.
